Assay results as given in PubChem BioAssay (NCI).
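Dose response: 5 concentrations. Exposure: 48 h. Format: 96-well plates. Endpoint: linear interpolation; highest concentration if not reached. TGI is the concentration that stops growth completely.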 Where a SMILES comes first, the peptide text is derived from it. [ ]: non-standard residue; d: D form. Phe(4-NO2) = N[CH](Cc1ccc([N+](=O)[O-])cc1)C(=O)O

Assays:
Assay in all cases: NCI-60 cell line screen, 48 h
A549 NSCLC = system: A549 NSCLC
ACHN renal = system: ACHN renal
HOP-62 NSCLC = system: HOP-62 NSCLC
HT29 colon = system: HT29 colon
KM12 colon = system: KM12 colon
MALME-3M melanoma = system: MALME-3M melanoma
MOLT-4 leukemia = system: MOLT-4 leukemia
NCI-H460 lung = system: NCI-H460 lung
NCI-H522 lung = system: NCI-H522 lung
OVCAR-3 ovarian = system: OVCAR-3 ovarian
OVCAR-4 ovarian = system: OVCAR-4 ovarian
PC-3 prostate = system: PC-3 prostate
RXF 393 renal = system: RXF 393 renal
SF-295 CNS = system: SF-295 CNS
SK-OV-3 ovarian = system: SK-OV-3 ovarian
SNB-75 CNS = system: SNB-75 CNS
UACC-257 melanoma = system: UACC-257 melanoma
UACC-62 melanoma = system: UACC-62 melanoma

Compound	TGI (A549 NSCLC)	TGI (ACHN renal)	TGI (HOP-62 NSCLC)	TGI (HT29 colon)	TGI (KM12 colon)	TGI (MALME-3M melanoma)	TGI (MOLT-4 leukemia)	TGI (NCI-H460 lung)	TGI (NCI-H522 lung)	TGI (OVCAR-3 ovarian)	TGI (OVCAR-4 ovarian)	TGI (PC-3 prostate)	TGI (RXF 393 renal)	TGI (SF-295 CNS)	TGI (SK-OV-3 ovarian)	TGI (SNB-75 CNS)	TGI (UACC-257 melanoma)	TGI (UACC-62 melanoma)
Cc1c2c(OCC(O)CN3CCN(c4ccccc4)CC3)nn(C)c(=O)c2c(C)n1-c1ccccc1 (configuration not stated)	73.7 µM	49.6 µM	> 100 µM	46.3 µM	> 100 µM	40.7 µM	88.9 µM	57.7 µM	42.2 µM	45.5 µM	> 100 µM	55.9 µM	70.2 µM	51.3 µM	> 100 µM	75.5 µM	72.1 µM	32 µM
O=C1C=CC(=O)c2c1ccc1c3ccccc3n(-c3ccccc3)c21	44.2 µM	11.1 µM	37.7 µM	37 µM	37.7 µM	16.8 µM	2.89 µM	34.6 µM	3.15 µM	21.9 µM	27.2 µM	27 µM	5.34 µM	22.2 µM	39.3 µM	40.2 µM	19.2 µM	26.2 µM
O=C(CCCN1CCC2(CC1)CC(=O)N(N1CCOCC1)C2=O)c1ccc(F)cc1	> 100 µM	> 100 µM	> 100 µM	> 100 µM	> 100 µM	> 100 µM	> 100 µM	> 100 µM	> 100 µM	> 100 µM		> 100 µM	> 100 µM	> 100 µM	> 100 µM	> 100 µM	> 100 µM	> 100 µM
O[C@H]1[C@H](O)[C@@H](O)[C@@]2(O)CC[C@@H]1N2	> 100 µM	> 100 µM	> 100 µM	> 100 µM	> 100 µM	> 100 µM	> 100 µM	> 100 µM	> 100 µM	> 100 µM	> 100 µM	> 100 µM	> 100 µM	> 100 µM	> 100 µM	> 100 µM	> 100 µM	> 100 µM
O=C(O)c1cc2c(cc1CC(Cc1ccc3c(c1)CCCC3)C(=O)O)CCCC2 (configuration not stated)	> 100 µM	> 100 µM	> 100 µM	> 100 µM	> 100 µM	> 100 µM	> 100 µM	> 100 µM	> 100 µM	> 100 µM	0.758 µM	> 100 µM	> 100 µM	> 100 µM	> 100 µM	> 100 µM	> 100 µM	> 100 µM
CC1=NC2c3c(-c4ccc(Cl)cc4)cn(-c4ccc(C)cc4)c3N=CN2N1 (configuration not stated)	> 100 µM	> 100 µM	> 100 µM	> 100 µM		> 100 µM		> 100 µM	> 100 µM	> 100 µM	33.3 µM	> 100 µM	> 100 µM	> 100 µM	> 100 µM	97.9 µM	> 100 µM	> 100 µM
O=C(O)c1cc(=O)c2c(OCC(O)COc3cccc4oc(C(=O)O)cc(=O)c34)cccc2o1	> 100 µM	> 100 µM	> 100 µM	> 100 µM	> 100 µM	> 100 µM	> 100 µM	> 100 µM	> 75.2 µM	> 100 µM	> 100 µM	> 100 µM	> 100 µM	> 100 µM	> 100 µM	> 100 µM	> 100 µM	> 100 µM
O=c1/c(=C/c2ccc([N+](=O)[O-])o2)sc2n1[C@@H](c1ccc(Cl)cc1)C=C(c1cc(F)c(Cl)cc1Cl)N=2	86.9 µM	32.6 µM	30.6 µM	23.2 µM	> 100 µM	33.9 µM	45.9 µM	24.3 µM	49.2 µM		30.8 µM	32.7 µM	28.5 µM	72.4 µM	50.8 µM	> 100 µM	30.6 µM	29.2 µM
CC(NC(=O)C(Cc1ccc([N+](=O)[O-])cc1)NC(=O)C(N)CCCCN)C(=O)NC(Cc1ccc([N+](=O)[O-])cc1)C(N)=O (configuration not stated) (H-K[Phe(4-NO2)]A[Phe(4-NO2)]-NH2; configuration not given here)	> 97 µM	> 100 µM	> 52.1 µM	> 100 µM	> 57.4 µM	> 83.7 µM	> 59.4 µM	> 100 µM	> 44.4 µM	> 100 µM	> 100 µM	> 100 µM	> 100 µM	> 70.9 µM	> 100 µM	> 100 µM	> 84.7 µM	> 100 µM
CN(C)CCCNC(=O)CCNC(=O)c1cc(NC(=O)c2cc(NC(=O)c3cc(NC(=O)c4nccn4C)cn3C)cn2C)cn1C	> 100 µM	> 100 µM	> 100 µM	> 100 µM	> 100 µM	> 100 µM	> 100 µM	> 100 µM	97 µM	> 100 µM	> 20.3 µM	> 100 µM	> 100 µM	> 100 µM	> 100 µM	> 100 µM	> 100 µM	> 100 µM
NC(=O)c1ncn(C2OC(CO)C(O)C2O)c1NC=O (configuration not stated)	> 100 µM	> 100 µM	> 100 µM	> 100 µM	> 100 µM	> 100 µM	> 100 µM	> 100 µM	> 100 µM	> 100 µM	> 100 µM	> 100 µM	> 100 µM	> 100 µM	> 100 µM	> 100 µM	> 100 µM	> 100 µM
CNC(=O)NCCN1CC2CCC(CC2)C1	> 10 µM	> 10 µM	> 10 µM	> 10 µM	> 10 µM	> 10 µM	> 10 µM	> 10 µM	> 10 µM	> 10 µM	> 10 µM	> 10 µM	> 10 µM	> 10 µM	> 10 µM	> 10 µM	> 10 µM	> 10 µM
Cc1cc(C)c(O)c(CN2CCN(C(C)C)CCN(C(C)C)CC2)c1	> 100 µM	> 100 µM			46.5 µM	31.9 µM	47.3 µM	> 100 µM	68 µM	> 100 µM	> 100 µM	> 100 µM	45 µM	85.3 µM		> 100 µM	35.5 µM	> 100 µM
